Source: paper PMC11408619 (2024)

Tested on: Bsu PreQ1 RNA (MFS construct) (RNA, riboswitch) UCGGCGAUCUACGCAGCGACAUAAUAAGAGGUUCUAGCUACACCCUCUAUAAAAAACUAAUAACAACCACUUCCUAAUCUGUCAUCUUCUG
Assay: magnetic force spectroscopy, fraction of high-force cycles
Conditions: 100 mM KCl, 1 mM MgCl2; 50 mM HEPES pH 7.4, 1% DMSO, 22 °C

Compound: NCc1c[nH]c2nc(N)[nH]c(=O)c12
- KD/EC50: 58.8 ± 6.3 nM
